In US11406642B2, “DNP and DNP prodrug treatment of neuromuscular, neurodegenerative, autoimmune, developmental, traumatic brain injury, concussion, dry eye disease, hearing loss and/or metabolic diseases” (priority 2016, dated 2022):
Like-named read-outs stand apart in the source and are kept apart here.

Assay: Plasma pharmacokinetics of 2,4-DNP, i.v. and oral
Type: in vivo, Sprague-Dawley male rats
Description: All procedures that involved the use of rats were conducted in accordance with the guidelines set forth by the University of Arkansas for Medical Sciences (UAMS) Institutional Animal Care and Use Committee established by the National Institutes of Health's Guide for the Care and Use of Laboratory Animals (1996). Male Sprague-Dawley rats weighing 250-300 grams were housed three per cage with ad libitum access to food and water in the Division of Laboratory Animal Resources, UAMS. Rats were anesthetized with isofluorane (2-5%)/oxygen (1.5-2.0 L/min) and surgically implanted with cannulae in the jugular (i.v. dosing) and femoral (blood sampling) veins. […] Following appropriate evidence of successful recovery from surgery, IV or oral dosing was performed and blood samples (0.15 mL) were collected at 0, 5, 15, 30, 45, 60, 120, 240 and 480 min. Plasma samples were prepared and analysis was run using a LC/MS/MS spectrometry.
2,4-DNP was dissolved in a phosphate-saline buffer solution, pH 7.4 containing 5% DMSO and 20% PEG-400 and filtered through a 0.2-μm filter. For the oral route, rats were gavaged with 5 mg/kg in a total volume of 8 mL/kg from a stock solution containing 0.625/mL of 2,4-DNP. For the i.v. injection, a total volume of 0.8 mL/kg was used at a dose of 1 mg/kg from a stock solution containing 1.25 mg/mL.
Jugular and femoral vein-catheterized Sprague-Dawley male rats (weights 250-300 g) were treated with 2,4-DNP at a single oral dose of 5 mg/kg (n=4) or a single i.v. dose of 1 mg/kg (n=3). For each i.v. and oral experiment, blood samples (0.15 mL) were collected at 0, 5, 15, 30, 45, 60, 120, 240 and 480 min. The withdrawn blood was replaced with heparinized saline (0.15 mL). Blood samples were centrifuged at 10,000 rpm for 10 min at room temperature, and plasma samples were prepared and analysis was run using a sensitive LC/MS/MS spectrometry method (see below).
To isolate the analytes from rat plasma, 50 μL of control or treated plasma fortified with 10 μL of 2,4-DNP-d3 (10 μg/mL) as an internal standard to which 0.3 mL of methanol followed by 0.3 mL of acetonitrile was added. The mixture was vortex-mixed for 30 s and centrifuged for 10 min at 10,000 rpm at room temperature. The supernatant was transferred into 5 mL glass tubes and evaporated to dryness at 37° C. under nitrogen gas. The pellet was reconstituted with 50 μL of acetonitrile, vortex-mixed for 30 sec, followed by sonication for 1 min. Following centrifugation at 1000 rpm for 10 min at room temperature, 5 μL of the supernatant was then injected onto the column, and analytes were quantified by a LC/MS/MS spectrometry.
1—Plasma concentrations of 2,4-DNP after a single i.v. injection of 2,4-DNP of 1 mg/kg or 5 mg/kg oral administration; 2—Plasma concentrations of II-38 and 2,4-DNP-released from II-38 after an i.v. injection 1.6 mg/kg of II-38 eq. to 1 mg/kg of 2,4-DNP or an oral dose of 8, 40 and 80 mg/kg of II-38 eq. to 5, 25 and 50 mg/kg of 2,4-DNP, respectively. The mass spectrometer was an Agilent quadrupole mass spectrometer operated in the multiple reaction monitoring (MRM) mode. 2,4-DNP-d3 was used as an internal standard. 2,4-DNP, II-38 and 2,4-DNP-d3 were separated using an Alltima C18 column, 5 μm, 3.2×150 mm (Grace Discovery Sciences, IL, USA) equipped with a guard column: Alltima C18, 5 μm, 4.6×7.5 mm (Grace Discovery Sciences, IL, USA). The mobile phase consists of water with 0.005% formic acid as solvent A and acetonitrile with 0.005% formic acid as solvent B. For analysis of 2,4-DNP, II-38 and 2,4-DNP-d3 compounds, the separation was achieved using a gradient of 10 to 90% solvent B in 3.5 min, which was maintained at 90% B for the next 3.30 min and then equilibrated back to the initial conditions over 3.20 min. The flow rate was 0.8 mL/min with a column temperature of 30° C. The sample injection volume was 5 μL. […]

[1] = 2,4-DNP single oral dose 5 mg/kg, n = 4, 5 mg/kg
[2] = 2,4-DNP single oral dose 5 mg/kg, n = 4, listed as DNP, 5 mg/kg

O=[N+]([O-])c1ccc(O)c([N+](=O)[O-])c1 [2,4-DNP, 2,4-dinitrophenol]
AUC [1]: 13288.0 ± 1634.1 µg·min/mL
t1/2 [1]: 136.3 ± 10.9 min
AUC [2]: 13288 µg·min/mL
Cmax [2]: 50 µg/mL
Tmax [2]: 38 min
t1/2 [2]: 136 min
half-life (male, Sprague-Dawley, rat, plasma, iv, 1 mg/kg, 2,4-DNP single i.v. dose 1 mg/kg, n = 3): 90 ± 9.9 min
Cmax (male, Sprague-Dawley, rat, plasma, iv, 1 mg/kg, 2,4-DNP single i.v. dose 1 mg/kg, n = 3, read-out: Cmax): 11.5 ± 6.2 µg/mL
clearance (male, Sprague-Dawley, rat, plasma, iv, 2,4-DNP single i.v. dose 1 mg/kg, n = 3): 1.2 ± 0.6 mL/min/kg
AUC (male, Sprague-Dawley, rat, plasma, iv, 2,4-DNP single i.v. dose 1 mg/kg, n = 3, read-out: AUC (converted)): 1350 µg·min/mL
Vd (male, Sprague-Dawley, rat, plasma, iv, 2,4-DNP single i.v. dose 1 mg/kg, n = 3, read-out: Vss): 0.161 ± 0.135 L/kg
half-life (male, Sprague-Dawley, rat, plasma, po, 5 mg/kg, 2,4-DNP single oral dose 5 mg/kg, n = 4): 136 ± 10.9 min
Cmax (male, Sprague-Dawley, rat, plasma, po, 5 mg/kg, 2,4-DNP single oral dose 5 mg/kg, n = 4, read-out: Cmax): 50.1 ± 7.4 µg/mL
Tmax (male, Sprague-Dawley, rat, plasma, po, 5 mg/kg, 2,4-DNP single oral dose 5 mg/kg, n = 4, read-out: tmax (converted)): 37.5 min
bioavailability (male, Sprague-Dawley, rat, plasma, 2,4-DNP single oral dose 5 mg/kg, n = 4): 65.8 ± 11.4%
AUC (male, Sprague-Dawley, rat, plasma, 2,4-DNP single oral dose 5 mg/kg, n = 4, read-out: AUC (converted)): 13300 µg·min/mL
